Where a SMILES comes first, the peptide text is derived from it. [ ]: non-standard residue; d: D form. ξ: configuration not given here. NMeF = CN[C@@H](Cc1ccccc1)C(=O)O; Hica(2S) = CC(C)C[C@H](O)C(=O)O; ξLac(3-iPr) = CC(C)CC(O)C(=O)O
What was measured:
Format in all cases: functional, cell-based
HepG2 = test: Antiproliferative activity against human HepG2 cells assessed as reduction in cell viability after 48 hr by CCK-8 assay; conditions: HepG2, 48 h
Huh-7 = test: Antiproliferative activity against human Huh-7 cells assessed as reduction in cell viability after 48 hr by CCK-8 assay; conditions: Huh-7, 48 h
[1] = Antiproliferative activity against rat MRMT-1 cells assessed as reduction in cell viability after 48 hr by CCK-8 assay; conditions: MRMT-1, 48 h

Row | Structure (SMILES) | IC50 (HepG2) | IC50 (Huh-7) | IC50 [1]
1 | CC[C@H](C)[C@H]1OC(=O)[C@H](C(C)C)N(C)C(=O)[C@@H](C(C)C)OC(=O)[C@H](C(C)C)N(C)C(=O)[C@@H]([C@@H](C)CC)OC(=O)[C@H](C(C)C)N(C)C1=O | 2.8 µM | 6.2 µM | 2.7 µM
2 | CC(C)(O)[C@H]1Cc2cc(C=O)ccc2O1 | > 50 µM | > 50 µM | > 50 µM
3 | CCC(C)[C@H]1OC(=O)[C@H](C(C)C)N(C)C(=O)[C@@H](C(C)CC)OC(=O)[C@H](CC(C)C)N(C)C(=O)[C@@H](C(C)CC)OC(=O)[C@H](C(C)C)N(C)C1=O (stereo partly specified) | 1.4 µM | 3.3 µM | 2.8 µM
4 | CCCCC/C=C\CCC(=O)O[C@@H]1[C@](N)(C(=O)O)CC[C@]1(O)c1ccccc1 | > 50 µM | > 50 µM | > 50 µM
5 | COC(=O)/C=C/c1c(CC=C(C)C)ncn1C | > 50 µM | > 50 µM | > 50 µM
6 | CC(C)CC1OC(=O)[C@H](Cc2ccccc2)NC(=O)[C@H](Cc2ccccc2)NC(=O)[C@H](Cc2ccccc2)NC(=O)[C@H](Cc2ccc(O)cc2)NC1=O (stereo partly specified) (cyclo(FFF[ξLac(3-iPr)]Y)) | 10.7 µM | 46.2 µM | > 50 µM
7 | CCCCCCCC(=O)OC1=C(c2ccccc2)CCC1=O | > 50 µM | > 50 µM | > 50 µM
8 | CC(=O)CC(O)Cc1cc2cc(O)cc(O)c2c(=O)o1 (stereo unspecified) | > 50 µM | > 50 µM | > 50 µM
9 | CCCCC/C=C\CCC(=O)OC1=C(c2ccccc2)CCC1=O | > 50 µM | > 50 µM | > 50 µM
10 | CC(C)C[C@@H]1OC(=O)[C@H](Cc2ccccc2)N(C)C(=O)[C@@H]2CCCN2C(=O)[C@H](C(C)C)NC(=O)[C@H](Cc2ccccc2)NC(=O)[C@@H]2CCCN2C(=O)[C@@H]2CCCN2C1=O (cyclo(FVP[NMeF][Hica(2S)]PP)) | 20.1 µM | > 50 µM | > 50 µM
11 | CN1C(=O)[C@@](C)(O)C(=O)[C@@H]1Cc1ccc2c(c1)CC(C(C)(C)O)O2 (stereo partly specified) [RIGIDIUSCULAMIDE C] | > 50 µM | > 50 µM | > 50 µM
12 | CCCCCCCC(=O)O[C@@H]1[C@](N)(C(=O)O)CC[C@]1(O)c1ccccc1 | > 50 µM | > 50 µM | > 50 µM
13 | CCC(C)C1NC(=O)C(CC(C)C)NC(=O)C(C(C)CC)NC(=O)C(CC(C)C)NC(=O)C(CC(C)C)NC1=O (stereo unspecified) (cyclo(ILILL); configuration not given here) | 14.1 µM | > 50 µM | > 50 µM
14 | O=c1[nH]cc(F)c(=O)[nH]1 [FLUOROURACIL] | 36.1 µM | 30.3 µM | 25.7 µM
15 | CC(C)[C@H]1OC(=O)[C@H](Cc2ccccc2)N(C)C(=O)[C@@H](C(C)C)OC(=O)[C@H](Cc2ccccc2)N(C)C(=O)[C@@H](C(C)C)OC(=O)[C@H](Cc2ccccc2)N(C)C1=O | 1 µM | 4.3 µM | 8.7 µM
16 | CC(C)CC1OC(=O)[C@H](Cc2ccccc2)NC(=O)[C@H](Cc2ccccc2)NC(=O)[C@H](Cc2ccccc2)NC(=O)[C@H](Cc2ccccc2)NC(=O)[C@H](Cc2c[nH]c3ccccc23)NC1=O (stereo partly specified) (cyclo(FFFF[ξLac(3-iPr)]W)) | 15.4 µM | 30.3 µM | 17.3 µM
17 | CCC(C)[C@H]1OC(=O)[C@H](C(C)C)N(C)C(=O)[C@@H](C(C)CC)OC(=O)[C@H](C(C)C)N(C)C(=O)[C@@H](C(C)CC)OC(=O)[C@H](C(C)C)N(C)C1=O (stereo partly specified) | 3.3 µM | 9.1 µM | 6.8 µM

— ChEMBL document CHEMBL5126657, “Cytotoxic Cyclodepsipeptides and Cyclopentane Derivatives from a Plant-Associated Fungus Fusarium sp” (J Nat Prod, 2022)
